No end group written: not given here.
Assay: Stability of 5 mg/mL SEQ ID NO: 1 solution pH 5.0 stored at 40° C. or −20° C. (content, pH, HPLC area %)
Format: physicochemical

RRWVRRVRRVWRRVVRVVRRWVRR-NH2 [SEQ ID NO: 1]
Solution pH (7 days/−20° C.): 4.95 | Main peak SEQ ID NO: 1 area % (14 days/−20° C.): 95.4% | SEQ ID NO: 1 content (54 days/−20° C.): 5.09 mg/mL | Solution pH (54 days/−20° C.): 4.95

Reference: patent US20230106943A1, “ENGINEERED ANTIMICROBIAL PEPTIDES AND USAGE THEREOF” (Peptilogics, Inc., priority 2021, published 2023)
